Laboratory results from patent US8569511B2, “Substituted 3-(1H-benzo[d]imidazol-2-yl)-1H-indazole analogs as inhibitors of the PDK1 kinase” (University of Utah Research Foundation, priority 2011, dated 2013).
Where two headings read alike, the source gives them in different places. One block for each compound: values may come before it.

Assays:
[1] = test system: NCCIT; assay: Cell viability assay, cancer cell line panel; type: cell-based; details: Homo sapiens, mutation PTEN
[2] = test system: 786-O; assay: Cell viability assay, cancer cell line panel; type: cell-based; details: Homo sapiens, 786-0; mutation PTEN
[3] = biological target: PDK1 (Homo sapiens (Human), UniProt O15530); assay: PDK1 fluorometric activity assay performed by Life Technologies; type: biochemical; details: for IC50: fluorometric assay performed by Life Technologies (Table IV), read-out: PDK1 Kinase assays (IC50)
Chain of PDK1 (O15530 whole entry): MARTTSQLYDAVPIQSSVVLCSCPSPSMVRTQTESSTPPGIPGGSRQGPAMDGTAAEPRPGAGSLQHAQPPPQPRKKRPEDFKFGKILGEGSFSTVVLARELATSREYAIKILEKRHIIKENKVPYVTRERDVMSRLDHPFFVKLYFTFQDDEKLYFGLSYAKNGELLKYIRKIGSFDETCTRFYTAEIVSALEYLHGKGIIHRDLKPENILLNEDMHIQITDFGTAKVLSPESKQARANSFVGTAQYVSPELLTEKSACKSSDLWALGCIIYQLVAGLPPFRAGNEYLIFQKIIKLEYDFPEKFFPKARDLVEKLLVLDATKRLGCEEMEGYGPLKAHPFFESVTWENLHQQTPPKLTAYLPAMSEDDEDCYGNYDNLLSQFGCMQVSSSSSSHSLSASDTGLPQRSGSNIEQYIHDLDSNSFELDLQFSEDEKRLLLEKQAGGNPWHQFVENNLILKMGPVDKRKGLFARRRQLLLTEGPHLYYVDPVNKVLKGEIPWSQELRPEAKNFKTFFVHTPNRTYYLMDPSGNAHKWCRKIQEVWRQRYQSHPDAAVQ
Procedure: PDK1 biochemical activity was measured by a fluorometric assay performed by Life Technologies (Grand Island, N.Y.). The assay conditions for PDK1 are as follows. The 2×PDK1/Ser/Thr-07 mixture is prepared in 50 mM Tris pH 8.5, 0.01% BRIJ-35, 10 mM MgCl2, 1 mM EGTA, 0.02% NaN3.
The kinase specificity was measured using fluorometric assays performed by Life Technologies (Grand Island, N.Y.). Assay conditions vary for each kinase and are available from Life Technologies, Grand Island, NY. For example, the assay conditions for PDK1 are as follows. The 2×PDK1/Ser/Thr-07 mixture is prepared in 50 mM Tris pH 8.5, 0.01% BRIJ-35, 10 mM MgCl2, 1 mM EGTA, 0.02% NaN3.

[4] = test system: 82 cell lines representing more than 20 tumor types; assay: Screen of a further 82 cell lines (8-point serial dilution); type: cell-based
Description: (§1) In order to determine if there were additional cell lines that were profoundly sensitive to this compound, a further 82 cell lines were screened which represented more than 20 different tumor types of origin. […] Without wishing to bound by a particular theory, these three additional cell lines are all acute myeloid leukemic lines that have different activating mutations in oncogenes that have been associated with elevated PI3K activity. MV4-11 has the FLT3 internal tandem duplication (ITD) and Kasumi-1 has amplified and mutated c-kit as well as the AML-ETO gene fusion. […] All three lines have wild-type PTEN but have shown to express very low levels of PTEN protein, which makes them functionally deficient for PTEN.

[5] = Mouse xenograft study, body weight; type: in vivo, athymic nude mice; details: 50 mg/kg IP, daily Monday through Friday for two weeks
Procedure: (§2) The in vivo effects of compounds were determined in a mouse subcutaneous xenograft tumor model wherein AN3-CA cells were implanted subcutaneously into the hind flank of athymic nude mice. Briefly, seven-week-old mice were injected with 2×10^6 AN3-CA cells on the right hind flank. […] The vehicle for these studies was 20% DMSO, 20% cremophor, and 60% water. The test compound was administered on daily schedule (Monday through Friday) for two weeks at a concentration of 50 mg/kg by intraperitoneal (“IP”) injection. The mice were sacrificed and the tumors were excised for western blot analysis. Tumor volume was determined using the formula L×W2×0.5, where L is the longest length, and W is the shortest length. Tumor volume and body weight was measured twice a week.
(§3) The study was carried out as described above for 2,2-difluoro-N-(3-(5-morpholino-1H-benzo[d]imidazol-2-yl)-1H-indazol-5-yl)cyclopropanecarboxamide, except that the test compound used was 2,2-difluoro-N-(3-(5-(2-methylmorpholino)-1H-benzo[d]imidazol-2-yl)-1H-indazol-5-yl)cyclopropanecarboxamide. Data are shown in FIGS. 10A and 10B for the effect of the compound on tumor volume and body weight, respectively.

[6] = test system: PC-3; assay: Cell viability assay, cancer cell line panel; type: cell-based; details: Homo sapiens, mutation PTEN
[7] = test system: BT-20; assay: Cell viability assay, cancer cell line panel; type: cell-based; details: Homo sapiens, mutation PIK3CA
[8] = test system: H1975; assay: Cell viability assay, cancer cell line panel; type: cell-based; details: Homo sapiens, NCI-H1975; mutation PIK3CA
[9] = test system: phosphorylation of the ribosomal protein s6 in AN3-CA cells; assay: In-cell western, phosphorylation of ribosomal protein s6; type: cell-based; details: Homo sapiens, 2 hours
Procedure: Cells were washed with PBS and whole cell lysates were prepared by incubating cells in […] (Invitrogen Corporation, Carlsbad, Calif.) supplemented with Protease Inhibitor Cocktail (Roche Applied Science, a division of Roche Diagnostics Corporation, Indianapolis, Ind.) and Phosphatase Inhibitor Cocktail (Roche) on ice for 30 minutes. After centrifuging the lysates at 12,000 rpm for 10 minutes at 4° C., the supernatant was collected. Protein concentration was determined using BCA Assay. The same amounts of protein were run on NuPAGE 4-12% Bis-Tris Gel, and then transferred onto a PVDF membrane. After blocking with Odyssey Blocking Buffer for 1 hour at room temperature, the membrane was incubated with primary antibodies (Cell Signaling Technology, Inc., Danvers, Massachussetts) overnight at 4° C. followed by 40 minute incubation with IRDye secondary antibody. The membrane was scanned using Odyssey Infrared Imaging System. […]
Briefly, ribosomal protein S6 was detected using differentially labeled antibodies specific for either total S6 protein or the phosphorylated form of the protein. In-cell detection with visual overlay of the signals for each antibody, e.g. total ribosomal protein s6 (red) and phospho-ribosomal protein s6 (green), allowed simultaneous detection and quantitation. Quantitation of signal intensity allowed determination of IC50 values for the test compounds.

[10] = test system: Kasumi cell line; assay: Screen of further cell lines; type: cell-based; details: acute myeloid leukemic line
Description: as §1

[11] = test system: MV4-11 cell line; assay: Screen of further cell lines; type: cell-based; details: acute myeloid leukemic line
Description: as §1

[12] = test system: KG-1 cell line; assay: Screen of further cell lines; type: cell-based; details: acute myeloid leukemic line
Description: as §1

[13] = test system: BT549; assay: Cell viability assay, cancer cell line panel; type: cell-based; details: Homo sapiens, BT-549; mutation PTEN
[14] = test system: HCT-15; assay: Cell viability assay, cancer cell line panel; type: cell-based; details: Homo sapiens, mutation KRAS, PIK3CA
[15] = test system: T47D; assay: Cell viability assay, cancer cell line panel; type: cell-based; details: Homo sapiens, mutation PIK3CA
[16] = test system: MCF-7; assay: Cell viability assay, cancer cell line panel; type: cell-based; details: Homo sapiens, MCF7; mutation PIK3CA
[17] = test system: AGS; assay: Cell viability assay, cancer cell line panel; type: cell-based; details: Homo sapiens, mutation KRAS, PIK3CA
[18] = test system: AN3-CA cells; assay: Mouse subcutaneous xenograft tumor model, tumor volume; type: in vivo, athymic nude mice; details: 50 mg/kg IP, daily Monday through Friday for two weeks
Procedure: as §2, §3

[19] = test system: SK-OV-3; assay: Cell viability assay, cancer cell line panel; type: cell-based; details: Homo sapiens, mutation PIK3CA

IC50 [1]: 2110 nM
IC50 [2]: 6010 nM
IC50 [3]: 80 nM
Kinase profiling activity against PDK1 (in words) ([3]; profiling at 500 nM, FIG. 8): good activity
IC50 in 9 of the 82 cell lines ([4]; 9 cell lines): hundreds of nano-molar range
IC50 ([4]; 68 of the cell lines, 10 μM down to 3 nM, read-out: IC50 in 68 of the 82 cell lines): > 1000 nM
IC50 ([4]; read-out: IC50 in 5 cell lines): < 100 nM
IC50 [6]: 7560 nM
IC50 [7]: 13100 nM
IC50 [8]: 9860 nM
IC50 [9]: 75.6 nM
IC50 [13]: 3160 nM
IC50 [14]: 6990 nM
IC50 [15]: 12800 nM
IC50 [16]: 8790 nM
IC50 [17]: 2770 nM
IC50 [19]: 1890 nM
Compound: O=C(Nc1ccc2[nH]nc(-c3nc4ccc(N5CCOCC5)cc4[nH]3)c2c1)C1CC1(F)F (centres unmarked) [Compound 1, 2,2-difluoro-N-(3-(5-morpholino-1H-benzo[d]imidazol-2-yl)-1H-indazol-5-yl)cyclopropanecarboxamide]
Effect on body weight [5]: did not appear to cause any body weight loss
Sensitivity of Kasumi cell line [10]: very sensitive
Sensitivity of MV4-11 cell line [11]: very sensitive
Sensitivity of KG-1 cell line [12]: very sensitive
Effect on tumor burden (tumor volume) compared to the vehicle control [18]: modest effect on tumor burden

IC50 [3]: 94 nM
IC50 [9]: 76.7 nM
Compound: CC1CN(c2ccc3nc(-c4n[nH]c5ccc(NC(=O)C6CC6(F)F)cc45)[nH]c3c2)CCO1 (centres unmarked) [Compound 2, 2,2-difluoro-N-(3-(5-(2-methylmorpholino)-1H-benzo[d]imidazol-2-yl)-1H-indazol-5-yl)cyclopropanecarboxamide]
Effect on body weight [5]: did not appear to cause any body weight loss
Effect on tumor burden (tumor volume) compared to the vehicle control [18]: profound and significant effect on tumor burden
